Where two headings read alike, the source gives them in different places.
Key:
PhnX19-II = biological target: T1, PhnX19-II (Achromobacter insolitus, UniProt Z9I4E4M620); assay: inhibition kinetics, ADH/NADH-coupled PAA hydrolysis, vector method; format: biochemical; details: substrate PAA 0.1-5 mM, pH 7.5, 10 mM MgCl2, 25 °C
T1 construct: native, purified from wild-type strain, untagged; homodimer; MALDI match to OAD13647.1
T1 sequence (Z9I4E4M620 1-273): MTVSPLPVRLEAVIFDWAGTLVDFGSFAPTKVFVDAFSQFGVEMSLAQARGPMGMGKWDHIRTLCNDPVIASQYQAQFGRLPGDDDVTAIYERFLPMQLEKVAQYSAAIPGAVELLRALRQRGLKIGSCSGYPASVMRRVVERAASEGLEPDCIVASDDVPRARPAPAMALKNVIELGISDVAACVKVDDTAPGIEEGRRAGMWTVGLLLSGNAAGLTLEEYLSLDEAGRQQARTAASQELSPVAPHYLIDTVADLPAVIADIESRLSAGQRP
Excerpt: inhibition kinetics, ADH/NADH-coupled PAA hydrolysis, vector method on PhnX19-II

PhnX19-I = biological target: T2, PhnX19-I (Achromobacter insolitus, UniProt Z9I4E4M620); assay: as above; format: biochemical; details: substrate PAA 0.1-5 mM, pH 7.5, 10 mM MgCl2, 25 °C
T2 construct: native, purified from wild-type strain, untagged; homodimer; MALDI match to OAD13647.1
T2 sequence (Z9I4E4M620 1-273): T1 sequence (Z9I4E4M620 1-273)
Excerpt: inhibition kinetics, ADH/NADH-coupled PAA hydrolysis, vector method on PhnX19-I

PhnX16 [1] = biological target: T3, PhnX16 (Achromobacter aegrifaciens, UniProt A0ABU2D8D6); assay: activation kinetics, ADH/NADH-coupled PAA hydrolysis, vector method; format: biochemical; details: substrate PAA 0.1-5 mM, pH 7.5, 10 mM MgCl2, 25 °C; Ka is an activation constant; competitive-type activator
T3 construct: gene phnX; native, purified from wild-type strain, untagged; subunit ~31 kDa, homodimer ~60-65 kDa
T3 sequence (A0ABU2D8D6 4-276): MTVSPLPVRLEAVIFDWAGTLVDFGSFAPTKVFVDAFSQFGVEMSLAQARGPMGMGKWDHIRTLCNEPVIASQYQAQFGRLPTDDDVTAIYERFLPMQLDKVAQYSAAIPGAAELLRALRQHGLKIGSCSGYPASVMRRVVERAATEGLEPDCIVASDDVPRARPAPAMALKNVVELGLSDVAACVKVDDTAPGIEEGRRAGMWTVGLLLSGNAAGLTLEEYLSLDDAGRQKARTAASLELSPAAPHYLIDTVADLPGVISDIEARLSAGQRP
Excerpt: activation kinetics, ADH/NADH-coupled PAA hydrolysis, vector method on PhnX16

PhnX16 [2] = biological target: T3, PhnX16; assay: inhibition kinetics, ADH/NADH-coupled PAA hydrolysis, vector method; format: biochemical
Excerpt: inhibition kinetics, ADH/NADH-coupled PAA hydrolysis, vector method on PhnX16

purified protein = substrate: O=CCP(=O)(O)O; assay: purified protein; format: biochemical, Achromobacter aegrifaciens; details: pH 7.5, 50 mM Tris-HCl, 10 mM MgCl2, 0.1 mM DTT, 25 °C
[3] = noncompetitive in table, uncompetitive in text, read-out: Effectors / 2,4-DNPA
[4] = noncompetitive inhibitor, read-out: Effectors / BPA
[5] = uncompetitive inhibitor, read-out: Effectors / GP
[6] = competitive inhibitor, read-out: Effectors / 2-AEP

With `CC(=O)Oc1ccc([N+](=O)[O-])cc1[N+](=O)[O-]` [2,4-DNPA, 2,4-dinitrophenyl acetate] the Ki (PhnX19-II; [3]) was 760 µM and the Ki (PhnX19-I; [3]) was 730 µM.

`NCP(=O)(O)O` [AMPA, aminomethylphosphonic acid] was tested, and the “Ka (activation constant)” value (PhnX16 [1]) was 43.5 mM.

`CCCCP(=O)(O)O` [BPA, butylphosphonic acid] showed a Ki (PhnX16 [2]) of 750 µM, a Ki (PhnX19-II; [4]) of 300 µM and a Ki (PhnX19-I; [4]) of 390 µM.

`O=C(O)CNCP(=O)(O)O` [GP, N-phosphonomethylglycine] showed a Ki (PhnX16 [2]; read-out: Effectors / GP) of 11600 µM, a Ki (PhnX19-II; [5]) of 5400 µM and a Ki (PhnX19-I; [5]) of 4000 µM.

In the case of `NCCP(=O)(O)O` [compound 1, 2-aminoethylphosphonic acid], the Ki (PhnX19-II; [6]) is reported as 2480 µM, the “Effectors / 2-AEP” value (PhnX16 [1]) is reported as 21 mM and the Ki (PhnX19-I; [6]) is reported as 2200 µM.

B1: PhnX16 (Achromobacter aegrifaciens) (protein)
chain: T3 sequence (A0ABU2D8D6 4-276)
notes: native, purified from wild-type strain, untagged; subunit ~31 kDa, homodimer ~60-65 kDa
Work on B1 yielded a Km (purified protein) of 889 ± 138 µM, a Vmax (purified protein) of 1.2 µmol/min/mg and a kcat (purified protein) of 0.6 ± 0.1 s⁻¹. The kcat/Km (purified protein) was 670 M⁻¹ s⁻¹.

B2: PhnX16R (Achromobacter aegrifaciens) (protein)
chain: T3 sequence (A0ABU2D8D6 4-276)
notes: recombinant full length, C-terminal His6 tag kept, pET-22b without pelB, E. coli BL21(DE3); homodimer
B2 was tested, and the Km (purified protein) was 641 ± 23 µM, the Vmax (purified protein) was 1.12 µmol/min/mg and the kcat (purified protein) was 0.56 ± 0.05 s⁻¹. It also gave a kcat/Km (purified protein) of 875 M⁻¹ s⁻¹.

From article PMC11203657, “Glyphosate-Induced Phosphonatase Operons in Soil Bacteria of the Genus Achromobacter” (International Journal of Molecular Sciences, 2024)
